Active and inactive are the calls of the source.
What was measured:
[1] = molecular target: T1, Mannose-6-phosphate isomerase (Homo sapiens, UniProt P34949); experiment: PMI enzyme inhibitors, confirmation, biochemical, fluorescence intensity (AID 1535)
T1 sequence (P34949 whole entry): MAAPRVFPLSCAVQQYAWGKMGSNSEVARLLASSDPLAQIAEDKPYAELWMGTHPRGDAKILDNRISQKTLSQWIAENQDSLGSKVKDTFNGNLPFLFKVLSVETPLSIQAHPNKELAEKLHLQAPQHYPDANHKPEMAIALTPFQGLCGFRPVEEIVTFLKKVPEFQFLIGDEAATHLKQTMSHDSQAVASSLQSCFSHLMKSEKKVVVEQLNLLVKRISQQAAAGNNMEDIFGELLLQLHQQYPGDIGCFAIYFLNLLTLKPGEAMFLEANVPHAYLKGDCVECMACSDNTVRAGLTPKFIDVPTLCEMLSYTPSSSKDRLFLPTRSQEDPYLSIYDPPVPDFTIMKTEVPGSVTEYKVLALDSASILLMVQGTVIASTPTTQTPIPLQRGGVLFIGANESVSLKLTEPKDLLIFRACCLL

Phosphomannomutase 2 = Phosphomannomutase 2 (Homo sapiens, UniProt O15305); experiment: Counter screen SAR assay for PMM2 inhibitors via a fluorescence intensity assay. [Related pubchem assays (depositor defined):AID1545, AID1574]
[2] = molecular target: Envelope glycoprotein gp160 (Human immunodeficiency virus 1, UniProt Q6QLK5); experiment: inhibitors of HIV fusion peptide binding, primary screen, biochemical, uHTS, fluorescence dequenching (AID 1986)
[3] = molecular target: T2, Tyrosine-protein phosphatase non-receptor type 22 (Homo sapiens, UniProt Q9Y2R2); experiment: LYP1 Fluorescent Assay using OMFP substrate for In Vitro dose response studies. [Related pubchem assays (depositor defined):AID1779, AID1784, AID435024]
T2 sequence (Q9Y2R2 whole entry): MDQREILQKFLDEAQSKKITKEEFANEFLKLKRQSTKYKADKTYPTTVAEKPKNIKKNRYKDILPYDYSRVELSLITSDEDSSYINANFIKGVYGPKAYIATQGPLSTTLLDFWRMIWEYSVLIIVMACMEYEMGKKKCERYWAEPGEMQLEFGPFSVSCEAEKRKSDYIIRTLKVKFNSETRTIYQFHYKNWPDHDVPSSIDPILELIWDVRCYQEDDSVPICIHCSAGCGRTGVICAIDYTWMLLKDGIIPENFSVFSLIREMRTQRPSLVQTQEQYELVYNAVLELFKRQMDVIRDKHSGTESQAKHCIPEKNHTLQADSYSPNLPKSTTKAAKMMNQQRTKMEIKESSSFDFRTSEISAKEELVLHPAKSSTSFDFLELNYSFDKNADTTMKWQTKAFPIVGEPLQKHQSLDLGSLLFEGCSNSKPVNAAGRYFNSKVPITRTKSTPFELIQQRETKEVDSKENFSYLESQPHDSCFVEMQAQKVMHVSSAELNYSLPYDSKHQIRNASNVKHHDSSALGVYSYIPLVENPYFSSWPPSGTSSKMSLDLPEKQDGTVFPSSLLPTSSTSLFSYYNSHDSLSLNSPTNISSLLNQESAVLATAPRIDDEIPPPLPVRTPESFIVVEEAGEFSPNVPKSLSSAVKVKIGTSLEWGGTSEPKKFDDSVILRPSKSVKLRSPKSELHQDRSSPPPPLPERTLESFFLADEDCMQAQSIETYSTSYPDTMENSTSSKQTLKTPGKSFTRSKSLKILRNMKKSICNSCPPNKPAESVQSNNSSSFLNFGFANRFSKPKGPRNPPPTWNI

[4] = molecular target: T3, Tyrosine-protein phosphatase non-receptor type 7 (Homo sapiens, UniProt P35236); assay type: functional
T3 sequence (P35236 whole entry): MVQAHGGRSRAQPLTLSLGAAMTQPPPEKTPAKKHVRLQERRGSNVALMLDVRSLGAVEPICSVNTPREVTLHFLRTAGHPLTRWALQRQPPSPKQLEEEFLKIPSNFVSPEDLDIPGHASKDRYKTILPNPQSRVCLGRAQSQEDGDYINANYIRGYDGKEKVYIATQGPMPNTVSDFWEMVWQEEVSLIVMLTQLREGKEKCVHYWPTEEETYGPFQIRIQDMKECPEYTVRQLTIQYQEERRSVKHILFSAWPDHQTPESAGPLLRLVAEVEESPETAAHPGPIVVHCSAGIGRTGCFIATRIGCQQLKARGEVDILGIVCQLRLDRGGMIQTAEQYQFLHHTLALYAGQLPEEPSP

[5] = molecular target: T3, Tyrosine-protein phosphatase non-receptor type 7; experiment: HTS HePTP Fluorescent Assay using OMFP substrate for In Vitro dose response studies. [Related pubchem assays (depositor defined):AID1059, AID1077, AID1784, AID2068, AID2085, AID435032, AID521]; assay type: functional
[6] = molecular target: T4, Induced myeloid leukemia cell differentiation protein Mcl-1 (Homo sapiens, UniProt Q07820); experiment: MCL1-BIM BH3 interaction inhibitors, dose response, biochemical, fluorescence polarization, BIM-BH3 peptide, 1536-well (AID 2217)
[7] = molecular target: T2, Tyrosine-protein phosphatase non-receptor type 22; experiment: inhibitors of LYP phosphatase, biochemical, fluorescence intensity, uHTS (AID 1779)
Bcl-2-like protein 1 = Bcl-2-like protein 1 (Homo sapiens, UniProt Q07817); experiment: BCL-XL inhibitors, dose response, selectivity assay for MCL1 inhibitor project, biochemical, fluorescence polarization, 1536-well (AID 2218)
SUMO E1/E2 = SUMO E1/E2 (Homo sapiens, UniProt P63279+Q9UBE0+Q9UBT2); experiment: SAR analysis of SUMOylation using HTRF in an in-Vitro dose response assay. [Related pubchem assays (depositor defined):AID2006, AID2011, AID2018, AID2069, AID2658]; assay type: functional
[8] = molecular target: T2, Tyrosine-protein phosphatase non-receptor type 22; experiment: SAR LYP1 Fluorescent Assay using pCAP substrate for In Vitro dose response studies - Set 2. [Related pubchem assays (depositor defined):AID1779, AID1784, AID2135, AID449727]; assay type: functional
[9] = molecular target: Tyrosine-protein phosphatase non-receptor type 12 (Homo sapiens, UniProt Q05209); experiment: SAR Selectivity Analysis of small molecule inhibitors of PEST using pCAP in a fluorescence assay. [Related pubchem assays (depositor defined):AID1779, AID1784, AID2135]; assay type: functional
[10] = molecular target: T2, Tyrosine-protein phosphatase non-receptor type 22; assay type: functional
[11] = molecular target: T2, Tyrosine-protein phosphatase non-receptor type 22; experiment: SAR LYP1 Fluorescent Assay using OMFP substrate for In Vitro dose response studies - Set 3. [Related pubchem assays (depositor defined):AID1779, AID1784, AID2140, AID2686]; assay type: functional
[12] = molecular target: T3, Tyrosine-protein phosphatase non-receptor type 7; experiment: HePTP (PTPN7) phosphatase inhibitor potency, SAR follow-up, biochemical, set 2 (AID 449736); assay type: functional
[13] = molecular target: T2, Tyrosine-protein phosphatase non-receptor type 22; assay type: functional; remark: listed apart in the source
[14] = molecular target: Eukaryotic translation initiation factor 4E (Mus musculus, UniProt P63073); experiment: eIF4E–eIF4G protein interaction inhibitors, dose response, biochemical, TR-FRET (AID 855); assay type: functional;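 note: potency for disrupting eIF4E binding to eIF4GI seen as loss of FRET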
[15] = molecular target: T2, Tyrosine-protein phosphatase non-receptor type 22; experiment: PubChem AID 2135
Nonstructural protein 1 = Nonstructural protein 1 (Influenza A virus, UniProt Q194T2); assay type: functional, Influenza A virus (A/California/07/2009(H1N1))
[16] = molecular target: T2, Tyrosine-protein phosphatase non-receptor type 22; experiment: PubChem AID 2140
[17] = molecular target: T2, Tyrosine-protein phosphatase non-receptor type 22; experiment: SAR LYP1 Fluorescent Assay using OMFP substrate for In Vitro dose response studies - Set 2. [Related pubchem assays (depositor defined):AID1779, AID1784, AID2140, AID449726, AID488869]; assay type: functional
Genome polyprotein = Genome polyprotein (dengue virus type 2, UniProt P29990); experiment: Dengue-2 NS5 methyltransferase inhibitors, primary screen, biochemical, confirmation dose response (AID 588689); assay type: functional
[18] = molecular target: T5, Small ubiquitin-related modifier 2 (Homo sapiens, UniProt P61956); experiment: SUMO2–SIM peptide binding inhibitors, dose response, selectivity assay for SUMO1 interaction inhibitor project, biochemical, fluorescence polarization, uHTS hits (AID 624385); assay type: functional; conditions: read-out: IC50_Mean
[19] = molecular target: T6, Small ubiquitin-related modifier 1 (Homo sapiens, UniProt P63165); experiment: inhibitors of SUMO1 peptide binding, dose response, biochemical, fluorescence polarization, uHTS hits (AID 624382); assay type: functional; conditions: read-out: IC50_Mean
[20] = molecular target: T5, Small ubiquitin-related modifier 2; experiment: inhibitors of SUMO2 protein-protein interaction, dose response, selectivity assay for SUMO1 interaction inhibitor project, biochemical, FRET, human SUMO2, uHTS hits (AID 624384); assay type: functional; conditions: read-out: IC50_Mean
[21] = molecular target: T6, Small ubiquitin-related modifier 1; experiment: inhibitors of SUMO1 partner interactions, dose response, biochemical, FRET (AID 624383); assay type: functional; conditions: read-out: IC50_Mean
[22] = molecular target: T7, Heat shock factor protein 1 (Mus musculus, UniProt P38532); experiment: inhibition of MG132-induced HSE-luciferase signal, confirmation, cell-based, NIH3T3, luminescence, dose retest (AID 2382); assay type: functional;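 note: NIH3T3 fibroblasts with HSF1-driven luciferase reporter stressed by proteasome inhibitor MG132; luminescence from HSF1-driven luciferase expression after 8 hours of MG132 stress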
T7 sequence (P38532 whole entry): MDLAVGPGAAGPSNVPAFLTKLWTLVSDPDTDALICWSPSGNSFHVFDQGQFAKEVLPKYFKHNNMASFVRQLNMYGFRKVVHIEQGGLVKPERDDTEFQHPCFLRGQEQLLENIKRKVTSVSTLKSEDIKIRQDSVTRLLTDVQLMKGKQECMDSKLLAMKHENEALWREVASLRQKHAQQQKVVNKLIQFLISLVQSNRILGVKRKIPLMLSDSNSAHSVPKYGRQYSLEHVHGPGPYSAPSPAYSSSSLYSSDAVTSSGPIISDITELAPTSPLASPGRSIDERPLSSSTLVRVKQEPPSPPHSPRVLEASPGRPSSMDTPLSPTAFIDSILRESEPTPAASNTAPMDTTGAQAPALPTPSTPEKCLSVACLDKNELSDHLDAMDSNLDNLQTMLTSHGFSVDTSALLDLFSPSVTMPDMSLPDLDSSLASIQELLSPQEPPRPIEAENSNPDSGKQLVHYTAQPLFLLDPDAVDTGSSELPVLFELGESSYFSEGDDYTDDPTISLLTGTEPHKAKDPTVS

[23] = Luminescence-based counterscreen assay for KLF5 inhibitors: dose response cell-based high throughput screening assay to identify cytotoxic compounds using the IEC-6 intestinal epithelial cell line. [Related pubchem assays: 1700 (Primary screen.), 1834 (Confirmation screen.), 1858 (Summary AID.), 1905 (Counterscreen.)]; assay type: functional
[24] = molecular target: T4, Induced myeloid leukemia cell differentiation protein Mcl-1; assay type: functional
Tumor necrosis factor = Tumor necrosis factor (Homo sapiens, UniProt P01375); experiment: TNFa-triggered NF-kB activation inhibitors, SAR follow-up, cell-based, revised (AID 2337); assay type: functional
[25] = molecular target: Nucleotide-binding oligomerization domain-containing protein 1 (Homo sapiens, UniProt Q9Y239); experiment: NOD1 signaling inhibitors, SAR follow-up, revised (AID 2333); assay type: functional
[26] = molecular target: T8, COUP transcription factor 2 (Homo sapiens, UniProt P24468); experiment: Luminescence-based cell-based high throughput dose response assay to identify inhibitors of COUP-TFII (NR2F2).; assay type: functional;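 note: HEK293 cells transiently cotransfected with COUP-TFII expression vector and reporter; luciferase reporter luminescence driven by COUP-TFII from the pX2-168 reporter plasmid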
T8 sequence (P24468 whole entry): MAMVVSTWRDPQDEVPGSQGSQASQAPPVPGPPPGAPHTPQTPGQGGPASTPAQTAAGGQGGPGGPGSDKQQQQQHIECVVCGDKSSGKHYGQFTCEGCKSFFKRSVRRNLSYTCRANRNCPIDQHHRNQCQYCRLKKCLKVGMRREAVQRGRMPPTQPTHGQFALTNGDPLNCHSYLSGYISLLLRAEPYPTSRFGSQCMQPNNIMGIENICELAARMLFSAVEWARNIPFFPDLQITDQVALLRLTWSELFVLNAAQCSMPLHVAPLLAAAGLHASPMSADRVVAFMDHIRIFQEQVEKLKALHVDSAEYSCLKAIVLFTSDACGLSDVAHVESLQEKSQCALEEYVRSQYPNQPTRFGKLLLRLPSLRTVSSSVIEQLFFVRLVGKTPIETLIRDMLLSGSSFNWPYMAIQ

HEK293 = experiment: cells; conditions: Homo sapiens;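 note: cells exposed to compound for 14 hours overnight before viability readout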

T4 sequence (Q07820 whole entry): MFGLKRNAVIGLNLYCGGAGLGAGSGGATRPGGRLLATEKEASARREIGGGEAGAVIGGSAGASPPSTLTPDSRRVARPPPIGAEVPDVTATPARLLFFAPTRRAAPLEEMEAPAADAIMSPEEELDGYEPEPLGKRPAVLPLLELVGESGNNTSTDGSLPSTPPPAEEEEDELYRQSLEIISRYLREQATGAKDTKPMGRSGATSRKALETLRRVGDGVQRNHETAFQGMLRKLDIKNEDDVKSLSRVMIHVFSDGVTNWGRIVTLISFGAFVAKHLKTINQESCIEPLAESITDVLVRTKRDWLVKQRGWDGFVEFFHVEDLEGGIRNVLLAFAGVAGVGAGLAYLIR
T5 sequence (P61956 whole entry): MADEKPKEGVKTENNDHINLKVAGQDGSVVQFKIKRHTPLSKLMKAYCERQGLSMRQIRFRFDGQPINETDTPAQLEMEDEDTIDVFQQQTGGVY
T6 sequence (P63165 whole entry): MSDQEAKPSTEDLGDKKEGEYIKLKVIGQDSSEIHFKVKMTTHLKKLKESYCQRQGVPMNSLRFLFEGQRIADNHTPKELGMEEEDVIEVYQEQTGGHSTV
Chain of Genome polyprotein (P29990 2492-3391 limits assumed): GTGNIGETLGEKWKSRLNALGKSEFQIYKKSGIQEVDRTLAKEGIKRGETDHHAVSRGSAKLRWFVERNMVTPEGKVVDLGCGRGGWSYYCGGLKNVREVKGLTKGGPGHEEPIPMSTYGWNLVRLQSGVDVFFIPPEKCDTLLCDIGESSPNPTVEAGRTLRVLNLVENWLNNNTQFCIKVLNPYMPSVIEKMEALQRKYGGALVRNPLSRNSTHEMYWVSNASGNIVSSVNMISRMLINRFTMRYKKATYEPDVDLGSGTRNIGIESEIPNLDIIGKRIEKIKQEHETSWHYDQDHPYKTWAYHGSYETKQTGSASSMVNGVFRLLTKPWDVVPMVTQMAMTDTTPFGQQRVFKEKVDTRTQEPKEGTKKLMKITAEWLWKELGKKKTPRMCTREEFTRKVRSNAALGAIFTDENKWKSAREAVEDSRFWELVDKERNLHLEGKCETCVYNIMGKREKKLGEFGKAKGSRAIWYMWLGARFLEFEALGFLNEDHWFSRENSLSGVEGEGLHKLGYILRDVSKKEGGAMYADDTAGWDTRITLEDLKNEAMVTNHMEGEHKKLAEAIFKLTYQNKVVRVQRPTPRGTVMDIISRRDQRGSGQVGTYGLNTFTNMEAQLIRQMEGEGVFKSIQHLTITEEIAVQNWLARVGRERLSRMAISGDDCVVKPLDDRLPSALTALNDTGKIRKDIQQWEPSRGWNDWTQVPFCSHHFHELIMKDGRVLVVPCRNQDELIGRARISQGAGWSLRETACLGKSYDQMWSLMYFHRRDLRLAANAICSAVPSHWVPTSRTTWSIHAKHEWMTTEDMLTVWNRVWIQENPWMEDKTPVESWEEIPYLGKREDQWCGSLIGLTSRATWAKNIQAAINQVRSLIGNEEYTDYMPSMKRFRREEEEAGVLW
Chain of SUMO E1/E2 (Q9UBE0 whole entry): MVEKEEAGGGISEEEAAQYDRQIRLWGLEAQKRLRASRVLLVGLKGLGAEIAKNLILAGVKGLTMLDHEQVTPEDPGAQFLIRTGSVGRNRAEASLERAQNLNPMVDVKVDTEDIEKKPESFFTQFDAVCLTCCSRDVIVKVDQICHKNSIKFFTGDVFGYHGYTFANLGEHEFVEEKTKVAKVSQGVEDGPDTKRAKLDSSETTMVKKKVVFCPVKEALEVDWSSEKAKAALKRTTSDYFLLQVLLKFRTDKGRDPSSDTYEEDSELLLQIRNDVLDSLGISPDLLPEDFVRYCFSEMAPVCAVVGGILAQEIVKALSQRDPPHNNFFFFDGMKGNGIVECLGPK
Chain of SUMO E1/E2 (Q9UBT2 whole entry): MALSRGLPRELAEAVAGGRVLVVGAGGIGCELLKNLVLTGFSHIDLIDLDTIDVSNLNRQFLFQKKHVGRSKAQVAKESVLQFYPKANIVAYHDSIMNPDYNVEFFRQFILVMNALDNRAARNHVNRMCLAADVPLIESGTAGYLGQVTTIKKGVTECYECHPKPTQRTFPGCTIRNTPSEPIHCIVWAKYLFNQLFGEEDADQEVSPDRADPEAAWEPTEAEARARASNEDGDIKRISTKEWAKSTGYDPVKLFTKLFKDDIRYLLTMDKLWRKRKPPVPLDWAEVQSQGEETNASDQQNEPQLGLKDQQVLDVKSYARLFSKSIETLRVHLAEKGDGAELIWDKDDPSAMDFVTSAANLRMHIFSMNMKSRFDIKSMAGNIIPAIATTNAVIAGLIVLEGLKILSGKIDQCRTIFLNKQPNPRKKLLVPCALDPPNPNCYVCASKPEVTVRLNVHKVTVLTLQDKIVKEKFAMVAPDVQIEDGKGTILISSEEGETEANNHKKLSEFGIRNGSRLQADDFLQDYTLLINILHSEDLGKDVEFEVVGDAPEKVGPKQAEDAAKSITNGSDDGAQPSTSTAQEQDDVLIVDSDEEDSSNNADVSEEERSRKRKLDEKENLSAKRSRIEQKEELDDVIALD
Chain of SUMO E1/E2 (P63279 whole entry): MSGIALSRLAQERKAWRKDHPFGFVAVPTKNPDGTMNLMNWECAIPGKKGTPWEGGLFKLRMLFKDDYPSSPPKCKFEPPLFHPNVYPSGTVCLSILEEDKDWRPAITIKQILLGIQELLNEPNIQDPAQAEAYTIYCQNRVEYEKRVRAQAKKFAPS
Chain of Tumor necrosis factor (P01375 whole entry, the tested form may be a part): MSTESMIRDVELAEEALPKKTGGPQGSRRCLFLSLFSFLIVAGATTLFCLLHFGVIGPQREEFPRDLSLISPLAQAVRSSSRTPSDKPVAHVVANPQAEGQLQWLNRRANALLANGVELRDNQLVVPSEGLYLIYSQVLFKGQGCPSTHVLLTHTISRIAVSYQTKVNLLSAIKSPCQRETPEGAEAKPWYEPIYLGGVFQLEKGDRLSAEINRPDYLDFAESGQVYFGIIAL
Chain of Tyrosine-protein phosphatase non-receptor type 12 (Q05209 whole entry): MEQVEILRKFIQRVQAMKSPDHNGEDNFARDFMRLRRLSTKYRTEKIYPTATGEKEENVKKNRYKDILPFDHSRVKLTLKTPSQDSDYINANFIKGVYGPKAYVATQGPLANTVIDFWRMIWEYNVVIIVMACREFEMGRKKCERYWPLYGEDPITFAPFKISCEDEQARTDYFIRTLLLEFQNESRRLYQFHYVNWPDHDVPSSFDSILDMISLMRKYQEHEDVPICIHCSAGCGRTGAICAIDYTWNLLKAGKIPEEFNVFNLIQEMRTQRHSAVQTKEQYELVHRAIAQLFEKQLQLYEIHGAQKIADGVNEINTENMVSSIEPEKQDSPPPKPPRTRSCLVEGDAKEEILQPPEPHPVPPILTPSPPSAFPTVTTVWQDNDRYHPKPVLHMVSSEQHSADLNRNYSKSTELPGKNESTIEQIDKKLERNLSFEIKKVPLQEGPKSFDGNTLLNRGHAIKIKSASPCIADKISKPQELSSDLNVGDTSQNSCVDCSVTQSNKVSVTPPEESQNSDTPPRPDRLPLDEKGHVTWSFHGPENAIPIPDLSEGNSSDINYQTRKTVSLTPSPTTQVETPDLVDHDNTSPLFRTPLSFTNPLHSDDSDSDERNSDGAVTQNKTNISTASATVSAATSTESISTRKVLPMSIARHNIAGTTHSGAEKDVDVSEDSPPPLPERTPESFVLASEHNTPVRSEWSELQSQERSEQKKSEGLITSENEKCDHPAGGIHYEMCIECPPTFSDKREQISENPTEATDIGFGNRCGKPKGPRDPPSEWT
Chain of Eukaryotic translation initiation factor 4E (P63073 whole entry): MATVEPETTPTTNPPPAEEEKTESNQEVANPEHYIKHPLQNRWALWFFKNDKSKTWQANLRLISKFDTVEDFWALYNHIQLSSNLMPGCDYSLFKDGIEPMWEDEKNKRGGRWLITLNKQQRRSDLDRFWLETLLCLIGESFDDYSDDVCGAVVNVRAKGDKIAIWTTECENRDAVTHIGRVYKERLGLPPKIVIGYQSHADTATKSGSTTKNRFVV
Chain of Phosphomannomutase 2 (O15305 whole entry, the tested form may be a part): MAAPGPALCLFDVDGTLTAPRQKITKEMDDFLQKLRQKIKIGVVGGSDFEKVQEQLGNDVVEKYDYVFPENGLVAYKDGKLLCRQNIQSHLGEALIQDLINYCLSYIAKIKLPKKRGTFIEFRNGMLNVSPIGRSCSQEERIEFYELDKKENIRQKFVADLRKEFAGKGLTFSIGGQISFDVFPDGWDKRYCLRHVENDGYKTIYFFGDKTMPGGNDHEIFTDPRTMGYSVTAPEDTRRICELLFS
Chain of Envelope glycoprotein gp160 (Q6QLK5 whole entry, the tested form may be a part): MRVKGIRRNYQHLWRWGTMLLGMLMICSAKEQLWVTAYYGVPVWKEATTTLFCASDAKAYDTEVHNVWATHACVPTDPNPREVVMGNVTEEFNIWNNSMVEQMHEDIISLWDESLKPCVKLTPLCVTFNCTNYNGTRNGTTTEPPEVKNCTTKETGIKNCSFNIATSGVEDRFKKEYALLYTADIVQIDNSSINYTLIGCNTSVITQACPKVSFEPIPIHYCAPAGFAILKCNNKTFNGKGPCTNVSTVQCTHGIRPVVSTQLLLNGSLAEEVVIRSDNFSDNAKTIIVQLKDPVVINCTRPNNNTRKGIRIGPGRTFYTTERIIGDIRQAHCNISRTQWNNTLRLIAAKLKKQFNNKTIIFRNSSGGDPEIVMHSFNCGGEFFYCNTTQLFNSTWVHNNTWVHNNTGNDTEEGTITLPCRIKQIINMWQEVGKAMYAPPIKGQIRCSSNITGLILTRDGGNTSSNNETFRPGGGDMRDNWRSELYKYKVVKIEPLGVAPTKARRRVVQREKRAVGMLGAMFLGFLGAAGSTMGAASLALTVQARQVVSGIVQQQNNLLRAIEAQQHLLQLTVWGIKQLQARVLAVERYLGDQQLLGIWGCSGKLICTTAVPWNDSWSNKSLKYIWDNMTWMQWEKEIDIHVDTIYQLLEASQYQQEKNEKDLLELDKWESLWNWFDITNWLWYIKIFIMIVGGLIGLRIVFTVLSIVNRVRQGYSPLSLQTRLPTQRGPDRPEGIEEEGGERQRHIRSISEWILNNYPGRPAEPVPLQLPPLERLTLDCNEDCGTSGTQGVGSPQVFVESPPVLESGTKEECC

In the case of `O=P(c1ccccc1)(c1nc2ccccc2s1)N1CCOCC1` (stereo not drawn), the IC50 [1] is reported as > 50 µM (inactive) and the IC50 (Phosphomannomutase 2) is reported as > 100 µM (inactive).

In the case of `Cc1c(Cl)cccc1NS(=O)(=O)c1ccc2c(c1)C1C=CCC1C(c1ccc(C(=O)O)cc1)N2` (stereo not drawn), the IC50 [2] is reported as 5.02 µM (active), the IC50 [3] is reported as 39.9 µM (active) and the IC50 [4] is reported as 49.8 µM (active). For the same compound, the IC50 [5] was 37.5 µM (active), the IC50 [6] was 6.54 µM (active) and the IC50 [7] was 20.8 µM (active). For the same compound, the IC50 (Bcl-2-like protein 1) was 50.8 µM (not active), the IC50 (SUMO E1/E2) was 26.9 µM (active) and the IC50 [8] was 45 µM (active). The IC50 [9] was 2.36 µM (active), the IC50 [10] was 19.6 µM (active) and the IC50 [11] was 15.8 µM (active). The IC50 [12] was 3.93 µM (active), the IC50 [13] was 48.5 µM (active) and the IC50 [14] was 14.2 µM (active). The IC50 [15] was > 100 µM (inactive), the IC50 (Nonstructural protein 1) was 82.4 µM (active) and the IC50 [16] was 47.4 µM (active). The IC50 [17] was 43.7 µM (active), the IC50 (Genome polyprotein) was 62.2 µM (active) and the IC50 [18] was 12.6 µM (active). The IC50 [19] was 5.38 µM (active), the IC50 [20] was 5.02 µM (active) and the IC50 [21] was 23.6 µM (inactive).

For `COC(=O)c1ccc2nc(Nc3nc4ccc(F)cc4s3)sc2c1`, the EC50 [22] was < 0.16 µM (active), the IC50 [23] was > 39.8 µM (not active) and the IC50 [24] was 1.11 µM (active). The IC50 (Tumor necrosis factor) was 0.462 µM (active), the IC50 [25] was 1.91 µM (active) and the IC50 [26] was 34 µM (inactive). For the same compound, the IC50 (HEK293) was > 20 µM (inactive).
